Measured values as given in publication PMC3816012 (Structure (London, England : 1993), 2013).

Biological target: IcmR-IcmQ (Legionella pneumophila, UniProt O54635)

`NC(=O)c1ccc[n+]([C@@H]2O[C@H](COP(=O)(O)OP(=O)(O)OC[C@H]3O[C@@H](n4cnc5c(N)ncnc54)[C@H](O)[C@@H]3O)[C@@H](O)[C@H]2O)c1` [NAD+] was tested, and the “filter binding assay, 32P-labelled NAD+” value was “A similar binding profile was observed for wild type IcmR-IcmQ complexes”.
